Tested on: Atm−/− mice
Test: Modified rotarod behavioral test
Type: in vivo, mouse
Conditions: P90, after treatment, vs PBS-treated Atm−/− and Atm+/+
Excerpt: The Atm−/− mice were originally generated by Dr. C. Barlow (Barlow et al., 1996). They were purchased from the Jackson Laboratory (Bar Harbor, Me.). Offspring of Atm+/− breeders were genotyped using real-time polymerase chain reaction-based assays of mouse tail DNA. Atm mice (1-month old) were divided into 3 groups: PBS-treated Atm+/+ mice (n=10/group); PBS-treated Atm−/− mice (n=9/group); and SB203580 (4-[5-(4-Fluorophenyl)-2-[4-(methylsulphonyl)phenyl]-1H-imidazol-4-yl]pyridine) treated Atm−/− mice (n=10/group). Mice were intraperitoneally injected with either PBS or SB203580 (4-[5-(4-Fluorophenyl)-2-[4-(methylsulphonyl)phenyl]-1H-imidazol-4-yl]pyridine) (5 mg/kg body weight) at 2-day intervals for 2 months. Animals were sacrificed one day after the last administration. Animal care was in accordance with The University of Texas MD Anderson Cancer Center guidelines for animal experiments.
We have devised a modified version of the standardized rotarod protocol (Columbus Instruments, Columbus, Ohio). […] Following training, three trials of mouse motor coordination were assessed by measuring the time before falling off the rotarod moving at 25 rpm.
Each experiment, including behavioral test, body weight measure and qRT-PCR was repeated at least three times. The proportion of mRNA expression was analyzed from a series of tissue sections. […]

Compound	rotarod performance (time before falling off at 25 rpm)
CC1(C)c2ccc(C(=O)O)cc2C(C)(C)N1[O] [CTMIO, 5-carboxy-1,1,3,3-tetramethylisoindolin-2-yloxyl]	stayed on the rod as long as did Atm+/+ mice
CC(=O)N[C@@H](CS)C(=O)O [NAC, N-acetyl-L-cysteine]	stayed on the rod as long as did Atm+/+ mice
